Measured values published in PMC7561186, “Rational design of balanced dual-targeting antibiotics with limited resistance” (PLoS Biology, 2020).
In brackets after ≈: the same amount, converted by molar mass. Like-named read-outs stand apart in the source and are kept apart here.

Assays:
[1] = tested on: multidrug-resistant Staphylococcus, Enterococcus, and Streptococcus isolates; test: MIC against multidrug-resistant gram-positive isolates (summary); format: cell-based; conditions: read-out: MIC values against all studied multidrug-resistant Staphylococcus, Enterococcus, and Streptococcus isolates
Method: MICs were determined using a standard serial broth microdilution technique according to the CLSI guidelines. Briefly, bacterial strains were inoculated onto MHBII agar plates and were grown overnight at 37 °C. Next, 3 individual colonies from each strain were inoculated into 1 mL MHBII medium and propagated at 37 °C, 250 rpm overnight. In the cases of Enterococcus and Streptococcus sp., cells were plated to BHI agar plates, and BHI broth was used to determine MICs. […] Following dilutions, each well was seeded with 5×10^4 bacterial cells. All measurements were performed in 3 parallel replicates and to avoid possible edge effects in microwell plates, side rows (A and H) were filled with sterile medium. Following inoculations, plates were covered with lids and wrapped in polyethylene plastic bags to minimize evaporation but allow for O2 transfer. Plates were incubated at 37 °C under continuous shaking at 150 rpm for 18 hours. After incubation, OD600 of each well was measured using a BioTek Synergy 2 microplate reader.

[2] = tested on: S. aureus clinical isolates; test: microbe, parasite or virus in culture; format: cell-based

`Cc1[nH]c(C(=O)Nc2nc3c(OCc4ccccc4)cc(C(=O)O)cc3s2)c(Cl)c1Cl` [ULD2] showed an MIC [1] of less than 2 µg/mL, an MIC ([2]; S. aureus ATCC 29213, MSSA / VSSA, test date 2018-10-25 (three repeat lines)) of 0.5 µg/mL (≈ 1.05 µM) and an MIC ([2]; Staphylococcus aureus, ATCC 29213 / MSSA, S. aureus ATCC 29213, MSSA / VSSA, test date 2018-10-25 (three repeat lines), read-out: MIC) of 0.25 µg/mL (≈ 0.525 µM). It also gave an MIC ([2]; Staphylococcus aureus, ATCC 29213 / MSSA, S. aureus ATCC 29213, MSSA / VSSA, test date 2018-11-07, read-out: MIC) of 0.25 µg/mL (≈ 0.525 µM), an MIC ([2]; Staphylococcus aureus, MRSA / NRS 3 / VISA, S. aureus IHMA 1308243, NRS3, MRSA / VISA, read-out: MIC) of 0.5 µg/mL (≈ 1.05 µM) and an MIC ([2]; Staphylococcus aureus, MRSA / NRS 4 / VISA, S. aureus IHMA 649380, NRS4, MRSA / VISA, read-out: MIC) of 0.25 µg/mL (≈ 0.525 µM). The MIC ([2]; Staphylococcus aureus, MRSA / NRS 18 / VISA, S. aureus IHMA 649386, NRS18, MRSA / VISA, read-out: MIC) was 0.5 µg/mL (≈ 1.05 µM), the MIC ([2]; Staphylococcus aureus, MRSA / NRS 19 / VISA, S. aureus IHMA 649387, NRS19, MRSA / VISA, read-out: MIC) was 0.25 µg/mL (≈ 0.525 µM) and the MIC ([2]; Staphylococcus aureus, MRSA / NRS 21 / VISA, S. aureus IHMA 649388, NRS21, MRSA / VISA, read-out: MIC) was 0.25 µg/mL (≈ 0.525 µM). The MIC ([2]; Staphylococcus aureus, MRSA / NRS 22 / USA600 / VISA, S. aureus IHMA 649389, NRS22, MRSA / VISA, USA600, read-out: MIC) was 0.5 µg/mL (≈ 1.05 µM), the MIC ([2]; Staphylococcus aureus, MRSA / NRS 23 / VISA, S. aureus IHMA 649390, NRS23, MRSA / VISA, read-out: MIC) was 0.5 µg/mL (≈ 1.05 µM) and the MIC ([2]; Staphylococcus aureus, MRSA / NRS 24 / VISA, S. aureus IHMA 649391, NRS24, MRSA / VISA, read-out: MIC) was 0.25 µg/mL (≈ 0.525 µM). The MIC ([2]; Staphylococcus aureus, MRSA / NRS 26, S. aureus IHMA 649392, NRS26, MRSA / VSSA, read-out: MIC) was 0.5 µg/mL (≈ 1.05 µM), the MIC ([2]; Staphylococcus aureus, MRSA / NRS 27 / VISA, S. aureus IHMA 1308248, NRS27, MRSA / VISA, read-out: MIC) was 0.5 µg/mL (≈ 1.05 µM) and the MIC ([2]; Staphylococcus aureus, MRSA / NRS 29 / VISA, S. aureus IHMA 1308250, NRS29, MRSA / VISA, read-out: MIC) was 0.25 µg/mL (≈ 0.525 µM). It also gave an MIC ([2]; Staphylococcus aureus, MRSA / NRS 37 / VISA, S. aureus IHMA 1308251, NRS37, MRSA / VISA, read-out: MIC) of 0.5 µg/mL (≈ 1.05 µM), an MIC ([2]; Staphylococcus aureus, MRSA / NRS 54, S. aureus IHMA 1308253, NRS54, MRSA / VSSA* (*Expected VAN intermediate, confirmed VAN susceptible twice), test date 2018-11-07, read-out: MIC) of 0.12 µg/mL (≈ 0.252 µM) and an MIC ([2]; Staphylococcus aureus, MRSA / NRS 56 / VISA, S. aureus IHMA 1308254, NRS56, MRSA / VISA, read-out: MIC) of 0.25 µg/mL (≈ 0.525 µM). For the same molecule, the MIC ([2]; Staphylococcus aureus, MRSA / USA100 / VRSA, S. aureus IHMA 672230, VRS1, MRSA / VRSA, USA100, read-out: MIC) was 0.25 µg/mL (≈ 0.525 µM), the MIC ([2]; Staphylococcus aureus, MRSA / USA100 / VRSA, S. aureus IHMA 672231, VRS2, MRSA / VRSA, USA100, read-out: MIC) was 0.25 µg/mL (≈ 0.525 µM) and the MIC ([2]; Staphylococcus aureus, MRSA / USA100 / VRSA, S. aureus IHMA 672234, VRS4, MRSA / VRSA, USA100, read-out: MIC) was 0.25 µg/mL (≈ 0.525 µM). For the same molecule, the MIC ([2]; Staphylococcus aureus, MRSA / USA100 / VRSA, S. aureus IHMA 672235, VRS5, MRSA / VRSA, USA100, read-out: MIC) was 0.25 µg/mL (≈ 0.525 µM), the MIC ([2]; Staphylococcus aureus, MRSA / USA100 / VRSA, S. aureus IHMA 672237, VRS7, MRSA / VRSA, USA100, read-out: MIC) was 0.25 µg/mL (≈ 0.525 µM) and the MIC ([2]; Staphylococcus aureus, MRSA / USA100 / VRSA, S. aureus IHMA 672238, VRS8, MRSA / VRSA, USA100, read-out: MIC) was 0.25 µg/mL (≈ 0.525 µM). The MIC ([2]; Staphylococcus aureus, MRSA / USA100 / VRSA, S. aureus IHMA 672239, VRS9, MRSA / VRSA, USA100, read-out: MIC) was 0.25 µg/mL (≈ 0.525 µM), the MIC ([2]; Staphylococcus aureus, MRSA / USA100 / VRSA, S. aureus IHMA 1308256, VRS10, MRSA / VRSA, USA100, read-out: MIC) was 0.5 µg/mL (≈ 1.05 µM) and the MIC ([2]; Staphylococcus aureus, MRSA / USA100 / VRSA, S. aureus IHMA 1308258, VRS11b, MRSA / VRSA, USA100, read-out: MIC) was 0.25 µg/mL (≈ 0.525 µM). For the same molecule, the MIC ([2]; Staphylococcus aureus, MRSA / USA800 / VRSA, S. aureus IHMA 672233, VRS3b, MRSA / VRSA, USA800, read-out: MIC) was 0.06 µg/mL (≈ 0.126 µM), the MIC ([2]; Staphylococcus aureus, MRSA / VISA / VRSA, all isolates of the panel (MRSA, VISA, VRSA), read-out: MIC against all tested S. aureus clinical isolates) was no more than 1 µg/mL and the MIC ([2]; Staphylococcus aureus, MRSA, S. aureus IHMA 1569509, MRSA / VSSA, read-out: MIC) was 0.12 µg/mL (≈ 0.252 µM). The MIC ([2]; Staphylococcus aureus, MRSA, S. aureus IHMA 1575268, MRSA / VSSA, read-out: MIC) was 0.25 µg/mL (≈ 0.525 µM), the MIC ([2]; Staphylococcus aureus, MRSA, S. aureus IHMA 1575629, MRSA / VSSA, read-out: MIC) was 0.25 µg/mL (≈ 0.525 µM) and the MIC ([2]; Staphylococcus aureus, MRSA, S. aureus IHMA 1577820, MRSA / VSSA, read-out: MIC) was 0.5 µg/mL (≈ 1.05 µM). For the same molecule, the MIC ([2]; Staphylococcus aureus, MRSA, S. aureus IHMA 1580300, MRSA / VSSA, read-out: MIC) was 0.12 µg/mL (≈ 0.252 µM), the MIC ([2]; Staphylococcus aureus, MRSA, S. aureus IHMA 1580940, MRSA / VSSA, read-out: MIC) was 0.5 µg/mL (≈ 1.05 µM) and the MIC ([2]; Staphylococcus aureus, MRSA, S. aureus IHMA 1582100, MRSA / VSSA, read-out: MIC) was 0.25 µg/mL (≈ 0.525 µM). The MIC ([2]; Staphylococcus aureus, MRSA, S. aureus IHMA 1583795, MRSA / VSSA, read-out: MIC) was 1 µg/mL (≈ 2.1 µM), the MIC ([2]; Staphylococcus aureus, MRSA, S. aureus IHMA 1584223, MRSA / VSSA, read-out: MIC) was 0.5 µg/mL (≈ 1.05 µM) and the MIC ([2]; Staphylococcus aureus, MRSA, S. aureus IHMA 1585316, MRSA / VSSA, read-out: MIC) was 0.25 µg/mL (≈ 0.525 µM). The MIC ([2]; Staphylococcus aureus, MRSA, S. aureus IHMA 1586780, MRSA / VSSA, read-out: MIC) was 0.25 µg/mL (≈ 0.525 µM), the MIC ([2]; Staphylococcus aureus, MRSA, S. aureus IHMA 1587322, MRSA / VSSA, read-out: MIC) was 0.25 µg/mL (≈ 0.525 µM) and the MIC ([2]; Staphylococcus aureus, MRSA, S. aureus IHMA 1588127, MRSA / VSSA, read-out: MIC) was 0.25 µg/mL (≈ 0.525 µM). It also gave an MIC ([2]; Staphylococcus aureus, MRSA, S. aureus IHMA 1591462, MRSA / VSSA, read-out: MIC) of 0.12 µg/mL (≈ 0.252 µM), an MIC ([2]; Staphylococcus aureus, MRSA, S. aureus IHMA 1592755, MRSA / VSSA, read-out: MIC) of 0.5 µg/mL (≈ 1.05 µM) and an MIC ([2]; Staphylococcus aureus, MRSA, S. aureus IHMA 1592776, MRSA / VSSA, read-out: MIC) of 0.25 µg/mL (≈ 0.525 µM). It also gave an MIC ([2]; Staphylococcus aureus, MRSA, S. aureus IHMA 1597106, MRSA / VSSA, read-out: MIC) of 0.5 µg/mL (≈ 1.05 µM), an MIC ([2]; Staphylococcus aureus, MRSA, S. aureus IHMA 1602095, MRSA / VSSA, read-out: MIC) of 0.25 µg/mL (≈ 0.525 µM) and an MIC ([2]; Staphylococcus aureus, MRSA, S. aureus IHMA 1611170, MRSA / VSSA, read-out: MIC) of 0.25 µg/mL (≈ 0.525 µM). The MIC ([2]; Staphylococcus aureus, MRSA, S. aureus IHMA 1611612, MRSA / VSSA, read-out: MIC) was 0.25 µg/mL (≈ 0.525 µM), the MIC ([2]; Staphylococcus aureus, MRSA, S. aureus IHMA 1612228, MRSA / VSSA, read-out: MIC) was 0.25 µg/mL (≈ 0.525 µM) and the MIC ([2]; Staphylococcus aureus, MRSA, S. aureus IHMA 1620441, MRSA / VSSA, read-out: MIC) was 0.25 µg/mL (≈ 0.525 µM). For the same molecule, the MIC ([2]; Staphylococcus aureus, MRSA, S. aureus IHMA 1621638, MRSA / VSSA, read-out: MIC) was 0.5 µg/mL (≈ 1.05 µM), the MIC ([2]; Staphylococcus aureus, MRSA, S. aureus IHMA 1622252, MRSA / VSSA, read-out: MIC) was 0.5 µg/mL (≈ 1.05 µM) and the MIC ([2]; Staphylococcus aureus, MRSA, S. aureus IHMA 1622527, MRSA / VSSA, read-out: MIC) was 0.25 µg/mL (≈ 0.525 µM). The MIC ([2]; Staphylococcus aureus, MRSA, S. aureus IHMA 1666371, MRSA / VSSA, read-out: MIC) was 0.25 µg/mL (≈ 0.525 µM), the MIC ([2]; Staphylococcus aureus, MRSA, S. aureus IHMA 1695391, MRSA / VSSA, read-out: MIC) was 0.12 µg/mL (≈ 0.252 µM) and the MIC ([2]; Staphylococcus aureus, MRSA, S. aureus IHMA 1703428, MRSA / VSSA, read-out: MIC) was 0.5 µg/mL (≈ 1.05 µM). It also gave an MIC ([2]; Staphylococcus aureus, MRSA, S. aureus IHMA 1720350, MRSA / VSSA, read-out: MIC) of 0.5 µg/mL (≈ 1.05 µM) and an MIC ([2]; Staphylococcus aureus, MRSA, S. aureus IHMA 1732989, MRSA / VSSA, read-out: MIC) of 0.5 µg/mL (≈ 1.05 µM).
